Data set [1] concerns the target T1, CD45 (Homo sapiens, UniProt P08575).
T1 construct: incubating the cytosolic portion of CD45 with the compounds and p-nitrophenyl phosphate (pNPP); purchased BIOMOL (Plymouth Meeting, Pa.)
T1 sequence (P08575 599-1306 limits assumed): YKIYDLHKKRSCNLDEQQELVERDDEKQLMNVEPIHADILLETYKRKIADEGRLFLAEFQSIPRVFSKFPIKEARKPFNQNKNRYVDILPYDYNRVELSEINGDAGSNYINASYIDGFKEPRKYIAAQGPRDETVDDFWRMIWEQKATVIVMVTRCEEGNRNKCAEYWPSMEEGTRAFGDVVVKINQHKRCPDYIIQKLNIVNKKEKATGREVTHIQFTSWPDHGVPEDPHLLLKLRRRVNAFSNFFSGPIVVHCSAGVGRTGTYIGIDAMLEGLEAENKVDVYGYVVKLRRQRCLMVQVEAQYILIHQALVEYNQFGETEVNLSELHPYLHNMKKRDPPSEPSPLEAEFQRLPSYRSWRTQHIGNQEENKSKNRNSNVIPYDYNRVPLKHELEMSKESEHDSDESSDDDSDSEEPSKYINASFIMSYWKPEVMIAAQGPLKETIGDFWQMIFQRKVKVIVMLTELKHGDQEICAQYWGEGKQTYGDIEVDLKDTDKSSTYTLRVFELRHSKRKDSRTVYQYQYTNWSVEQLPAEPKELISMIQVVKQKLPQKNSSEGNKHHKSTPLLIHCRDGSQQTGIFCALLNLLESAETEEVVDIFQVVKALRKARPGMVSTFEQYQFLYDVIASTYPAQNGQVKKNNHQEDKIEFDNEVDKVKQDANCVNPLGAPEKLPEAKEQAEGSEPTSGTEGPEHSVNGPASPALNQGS
The data set can be described thus: Phosphatase assay using pNPP as substrate. As to conditions: pH 7.0. It is filed as biochemical. On the procedure: (§1) Potent inhibitors of CD45 have been discovered. Such inhibitors are useful for the treatment of various autoimmune disorders as well as for treatment of OGR. Inhibition of the phosphatase activity of CD45 by compounds of the present invention has been shown by incubating the cytosolic portion of CD45 with the compounds and p-nitrophenyl phosphate (pNPP), a phosphatase substrate. Spectrophotometric monitoring has shown that the liberation of p-nitrophenol from the substrate by CD45 is inhibited in the presence of the compounds disclosed herein. Inhibition of the phosphatase activity of CD45 by compounds of the present invention has also been shown using a p56^lck carboxy-terminal phosphorylated peptide as a substrate.
CD45 enzyme was obtained from BIOMOL (Plymouth Meeting, Pa.). Phosphatase activity was assayed in a buffer containing final concentrations of 25 mM imidazole at pH 7.0, 50 mM NaCl, 2.5 mM ethylenediaminetetraacetic acid (“EDTA”), 5 mM dithiothreitol (“DTT”) and 10 μg/mL bovine serum albumin (“BSA”) using pNPP as a substrate.
Activity was measured by following the increase in absorbance at 405 nm using a SpectraMax Plus spectrophotometric plate reader (Molecular Devices, Sunnyvale, Calif.).

For data set [2], the target named is T1, CD45. In words: Phosphatase assay using lck 10-mer as substrate. As to conditions: lck carboxy-terminal peptide TEGQpYQPQP substrate, pH 7.2, 5% DMSO, read-out: Ick IC50. The class given is biochemical. On the procedure: as §1
Phosphatase activity was assayed in 96 well plates in a buffer containing final concentrations of 25 mM HEPES at pH 7.2, 5 mM DTT and 10 μg/mL BSA, using the lck carboxy-terminal peptide TEGQpYQPQP as the substrate (Cho, H., Krishnaraj. R., Itoh. M., Kitas, E., Bannwarth, W., Saito, H., Walsh, C. T. 1993. Substrate specificities of catalytic fragments of protein tyrosine phosphatases (HPTPb, LAR. and CD45) toward the phosphotyrosylpeptide substrates and thiophosphotyrosylated peptides as inhibitors. Protein Science 2:977-984). Compounds were tested in a range from 30 to 0.01 μM in a final concentration of 5% DMSO. Enzyme was incubated with substrate. with or without compound, at room temperature for 1.5 h. At the end of the incubation period, BIOMOL “Green Reagent” (BIOMOL, Plymouth Meeting, Pa.) was added to each well, the plates incubated at room temperature for 30 min and absorbance read at 620 nm.

Data set [3] concerns Peripheral blood mononuclear cells (T cells). In words: T cell proliferation assay (anti-CD3 OKT3-activated PBMC, [3H]thymidine). It is filed as cell-based. The settings on record: human PBMC activated with OKT3 30 ng/mL, read-out: T cell prolif. IC50. On the procedure:
Whole blood was obtained from healthy human blood donors. Peripheral blood mononuclear cells (“PBMC”) were isolated using Lymphoprep density-gradient centrifugation (Nycomed Amersham, Oslo, Norway), washed, counted and resuspended at 2×10^6 cells/mL in RPMI 1640 medium containing glutamine, 0.1 mg/mL gentamycin and 10% heat inactivated human serum. PBMC were transferred to 96-well plates (2×10^5 cells/well) containing compound or vehicle control, with the final concentration of DMSO not to exceed 0.3% and incubated for 1 hour before addition of the activating anti-CD3 antibody, OKT3 (30 ng/mL). After 24 hours in culture, the cells were pulsed with [3H]thymidine (1 μCi/well) overnight and harvested the next day onto 96-well Packard GF/C filter plates using a Packard Cell Harvester (Packard Instruments, Meriden, Conn.). The filter plate was dried, the bottom of the plate sealed, 25 μL of Microscint 20 scintillation fluid added to each well, the top of the plate sealed with TopSeal-A, and the plate counted on a Packard TopCount. The data from the TopCount is transferred into Excel 5 (Microsoft, Redmond, Wash.) and formatted for EC50 determination using Prism software (GraphPad Software, San Diego, Calif.).

Data set [4] in a line: Cytotoxicity assay (Calcein-AM uptake). It is filed as cell-based. The settings on record: human, T-cell lymphoblasts (PHA-expanded PBMC), overnight incubation, Calcein-AM viability.

SMILES strings stand for the structures.

`COC(=O)c1ccc2c(c1)C=CC(=O)C2=O` [Example 17, 5,6-Dioxo-5,6-dihydro-naphthalene-2-Carboxylic acid methyl ester]: the 50% inhibitory concentration (IC50) in data set [1] was 7 µM; in data set [2], greater than 30 µM; in data set [3], 7 µM. Further, in data set [4], the CC50 is greater than 30 µM.

As for `CCOC1=CC(=O)C(=O)c2ccccc21` [Example 2, 4-Ethoxy-[1,2]naphthoquinone], the results for the IC50 in data set [1] and in data set [3] were 2 µM and greater than 30 µM, respectively. The CC50 in data set [4] is 30 µM.

On to `O=C1C=C(Cl)c2ccccc2C1=O` [Example 5, 4-Chloro-[1,2]naphthoquinone], for which the IC50 in data set [1] was 10 µM; in data set [2] it was greater than 30 µM; in data set [3], greater than 30 µM. For the same molecule, in data set [4], the CC50 was greater than 30 µM.

For `COC1=CC(=O)C(=O)c2ccccc21` [Example 3, 4-Methoxy-[1,2]naphthoquinone], the IC50 is 1.2 µM in data set [1], 4.2 µM in data set [2] and greater than 30 µM in data set [3].

For `O=C1C=C(c2ccccc2)c2ccccc2C1=O` [Example 11, 4-Phenyl-[1,2]naphthoquinone], the concentration for half-maximal inhibition (IC50) is 5 µM in data set [1], greater than 30 µM in data set [2] and 0.15 µM in data set [3]. Moreover, the CC50 in data set [4] was 12 µM.

In the case of `O=C1C=C(c2ccccc2Cl)c2ccccc2C1=O` [Example 9, 4-(2-Chloro-phenyl)-[1,2]naphthoquinone], the IC50 in data set [1] is 8 µM; in data set [2], greater than 30 µM; in data set [3] it was 0.3 µM. Also, in data set [4], the CC50 was 124 µM.

Consider `O=C1C=C(c2c(-c3ccccc3)[nH]c3ccccc23)c2ccccc2C1=O` [Example 8, 4-(2-Phenyl-1H-indol-3-yl)-[1,2]naphthoquinone], for which the IC50 in data set [1] turned out to be 2.9 µM; in data set [2], 20 µM; in data set [3] it was 2 µM. Also, the CC50 in data set [4] is 16 µM.

As for `O=C1C=C(c2ccc(Br)cc2)c2ccccc2C1=O` [Example 10, 4-(4-Bromo-phenyl)-[1,2]naphthoquinone], the IC50 in data set [1] is 7.7 µM; in data set [2] it was greater than 30 µM; in data set [3], 0.11 µM. In addition, in data set [4], the CC50 is 3 µM.

On to `O=C1C=C(c2cccc([N+](=O)[O-])c2)c2ccccc2C1=O` [Example 14, 4-(3-Nitro-phenyl)-[1,2]naphthoquinone], for which the IC50 in data set [1] is 7.9 µM; in data set [2] it was greater than 30 µM; in data set [3], 0.2 µM. Also, in data set [4], the CC50 is 4 µM.

Take `O=C1C=C(c2cccc3ccccc23)c2ccccc2C1=O` [Example 12, [1,1′]Binaphthalenyl-3,4-dione]: the figures for the concentration for half-maximal inhibition (IC50) in data set [1], in data set [2] and in data set [3] were 22.5 µM, greater than 30 µM and 3.2 µM, respectively. For the same molecule, the CC50 in data set [4] is greater than 30 µM.

For the molecule `O=C1C=C(c2cc(Cl)cc(Cl)c2)c2ccccc2C1=O` [Example 13, 4-(3,5-Dichloro-phenyl)-[1,2]naphthoquinone], the results for the half-inhibitory concentration (IC50) in data set [1] and in data set [3] were 5.5 µM and 0.3 µM, respectively. For the same molecule, the CC50 in data set [4] was 5.5 µM.

Take `Cn1cc(C2=CC(=O)C(=O)c3ccccc32)c2ccccc21` [Example 7, 4-(1-Methyl-1H-indol-3-yl)-[1,2]naphthoquinone]: the IC50 in data set [1] was found to be 5 µM; in data set [2], 19 µM; in data set [3], 1.5 µM. For the same molecule, the CC50 in data set [4] was greater than 30 µM.

Regarding `O=C1C=Cc2ccccc2C1=O` [Example 1, [1,2]-Naphthoquinone], the IC50 in data set [1] is 3 µM; in data set [2], greater than 30 µM; in data set [3], 7 µM. The CC50 in data set [4] is greater than 30 µM.

Take `O=C1C=Cc2cc(C(=O)c3ccccc3)ccc2C1=O` [Example 15, 6-Benzoyl-[1,2]naphthoquinone]: the IC50 in data set [1] was 22 µM; in data set [2], greater than 30 µM; in data set [3], 11 µM. Besides, the CC50 in data set [4] is greater than 30 µM.

Regarding `O=C1C=C(Br)c2ccccc2C1=O` [Example 6, 4-Bromo-[1,2]naphthoquinone], the IC50 in data set [1] is 8.7 µM; in data set [2], greater than 30 µM; in data set [3], 22 µM. Also, in data set [4], the CC50 is greater than 30 µM.

For the molecule `COC(=O)c1cccc2c1C=CC(=O)C2=O` [Example 16, 5,6-Dioxo-5,6-dihydro-naphthalene-1-Carboxylic acid methyl ester], the IC50 in data set [1] is 11 µM; in data set [2], greater than 30 µM. The CC50 in data set [4] is greater than 30 µM.

`O=C1C=Cc2ccc(O)cc2C1=O` [Example 18, 7-Hydroxy-[1,2]naphthoquinone]: the IC50 was 4.9 µM in data set [1] and greater than 30 µM in data set [3]. The CC50 in data set [4] is greater than 30 µM.

As for `C=CCOC1=CC(=O)C(=O)c2ccccc21` [Example 4, 4-Allyloxy-[1,2]naphthoquinone], the IC50 in data set [1] is 1.2 µM; in data set [2] it was 4.9 µM; in data set [3], greater than 30 µM. Also, the CC50 in data set [4] was greater than 30 µM.

Values taken from US6939896B2, “Cd45 inhibitors” (AstraZeneca AB, priority 1999, dated 2005).
